Patent US7208506B2, “Heteroarylethenyl derivatives, their manufacture and use as pharmaceutical agents” (Hoffmann-La Roche Inc., priority 2005, dated 2007)
Where a name gives a salt, the structure may show the parent alone.

tested on: HCT 116 cells; experiment: CellTiter-Glo Luminescent Cell Viability Assay in HCT 116 cells; format: cell-based; conditions: Homo sapiens, HCT-116, 120 h, HCT 116 human colon carcinoma cell viability, 120 h (5 days) incubation, 10 concentrations 30 μM to 0.0015 μM, triplicate
Description: CellTiter-Glo™ Assay in HCT 116 Cells
The CellTiter-Glo™ Luminescent Cell Viability Assay (Promega) is a homogeneous method of determining the number of viable cells in culture based on quantitation of the ATP present, which signals the presence of metabolically active cells.
HCT 116 cells (human colon carcinoma, ATCC-No. CCl1-247) were cultivated in RPMI 1640 medium with GlutaMAX™ I (Invitrogen, Cat-No. 61870-010), 2.5% Fetal Calf Serum (FCS, Sigma Cat-No. F4135 (FBS)); 100 Units/ml penicillin/100 μg/ml streptomycin (=Pen/Strep from Invitrogen Cat. No. 15140). For the assay the cells were seeded in 384 well plates, 1000 cells per well, in the same medium. The next day the test compounds were added in various concentrations ranging from 30 μM to 0.0015 μM (10 concentrations, 1:3 diluted). After 5 days the CellTiter-Glo™ assay was done according to the instructions of the manufacturer (CellTiter-Glo™ Luminescent Cell Viability Assay, from Promega). In brief: the cell-plate was equilibrated to room temperature for approximately 30 minutes and than the CellTiter-Glo™ reagent was added. The contents were carefully mixed for 15 minutes to induce cell lysis. After 45 minutes the luminescent signal was measured in Victor 2, (scanning multiwell spectrophotometer, Wallac).
Medium: RPMI 1640 with GlutaMAX™ I (Invitrogen, Cat-Nr. 61870), 5% FCS (Sigma Cat.-No. F4135), Pen/Strep (Invitrogen, Cat No. 15140).
HCT116 (ATCC-No. CCl-247): 1000 cells in 60 μl per well of 384 well plate (Greiner 781098, μClear-plate white)
After seeding incubate plates 24 h at 37° C., 5% CO2
2nd. Day: Induction (Treatment with Compounds, 10 Concentrations):
In order to achieve a final concentration of 30 μM as highest concentration 3,5 μl of 10 mM compound stock solution were added directly to 163 μl media. Then step e) of the dilution procedure described below, was followed.
In order to achieve the second highest to the lowest concentrations, a serial dilution with dilution steps of 1:3 was followed according to the procedure (a–e) as described here below: • a) for the second highest concentration add 10 μl of 10 mM stock solution of compound to 20 μl dimethylsulfoxide (DMSO) • b) dilute 8×1:3 (always 10 μl to 20 μl DMSO) in this DMSO dilution row (results in 9 wells with concentrations from 3333.3 μM to 0.51 μM) • c) dilute each concentration 1: 47.6 (3.5 μl compound dilution to 163 μl media) • e) add 10 μl of every concentration to 60 μl media in the cell plate resulting in final concentration of DMSO : 0.3% in every well and resulting in 10 final concentration of compounds ranging from 30 μM to 0.0015 μM. • Each compound is tested in triplicate. • Incubate 120 h (5 days) at 37° C., 5% CO2
Analysis: • Add 30 μl CellTiter-Glo™ Reagent per well, • shake 15 minutes at room temperature • incubate further 45 minutes at room temperature without shaking
Measurement: • Victor 2 scanning multiwell spectrophotometer (Wallac), Luminescence mode (0.5 sec/read, 477 nm) • Determine IC50 using a non-linear curve fit (XLfit software (ID Business Solution Ltd., Guilford, Surrey, UK))

Row | IC50 [µM] | SMILES
1 | 0.5 to 15 | COc1ccc(/C=C/S(=O)(=O)NC(=O)c2ccc(F)cc2Cl)cn1 [Example 2-10, (E)-2-(6-Methoxy-pyridin-3-yl)-ethenesulfonic acid 2-chloro-4-fluoro-benzoylamide; sodium salt]
2 | 0.5 to 15 | O=C(NS(=O)(=O)/C=C/c1cncnc1)c1ccc(Cl)cc1Cl [Example 2-18, (E)-2-Pyrimidin-5-yl-ethenesulfonic acid 2,4-dichloro-benzoylamide; sodium salt]
3 | 0.5 to 15 | Cc1cc(Cl)ccc1C(=O)NS(=O)(=O)/C=C/c1ccccn1 [Example 4-2, (E)-2-Pyridin-2-yl-ethenesulfonic acid 4-chloro-2-methyl-benzoylamide; sodium salt]
4 | 0.5 to 15 | Cc1cc(Cl)ccc1C(=O)NS(=O)(=O)/C=C/c1ccsc1 [Example 3-2, (E)-2-Thiophen-3-yl-ethenesulfonic acid 4-chloro-2-methyl-benzoylamide; sodium salt]
5 | 0.5 to 15 | Cc1cc(Br)ccc1C(=O)NS(=O)(=O)/C=C/c1ccccn1 [Example 4-4, (E)-2-Pyridin-2-yl-ethenesulfonic acid 4-bromo-2-methyl-benzoylamide; sodium salt]
6 | 0.5 to 15 | O=C(NS(=O)(=O)/C=C/c1ccsc1)c1ccc(F)cc1C(F)(F)F [Example 1-5, (E)-2-Thiophen-3-yl-ethenesulfonic acid 4-fluoro-2-trifluoromethyl-benzoylamide; sodium salt]
7 | 0.5 to 15 | O=C(NS(=O)(=O)/C=C/c1csc2ccccc12)c1ccc(F)cc1Br [Example 4-19, (E)-2-Benzo[b]thiophen-3-yl-ethenesulfonic acid 2-bromo-4-fluoro-benzoylamide; sodium salt]
8 | 3.41 | O=C(NS(=O)(=O)/C=C/c1cccnc1)c1ccc(Cl)cc1Cl [Example 2-1, (E)-2-Pyridin-3-yl-ethenesulfonic acid 2,4-dichloro-benzoylamide; sodium salt]
9 | 0.5 to 15 | Cc1ccc(/C=C/S(=O)(=O)NC(=O)c2ccc(Cl)cc2Cl)s1 [Example 1-8, (E)-2-(5-Methyl-thiophen-2-yl)-ethenesulfonic acid 2,4-dichloro-benzoylamide]
10 | 0.5 to 15 | O=C(NS(=O)(=O)/C=C/c1csc2ccccc12)c1ccc(Cl)cc1Cl [Example 2-27, (E)-2-Benzo[b]thiophen-3-yl-ethenesulfonic acid 2,4-dichloro-benzoylamide; sodium salt]
11 | 0.5 to 15 | COc1cc(Cl)ccc1C(=O)NS(=O)(=O)/C=C/c1cccnc1 [Example 4-1, (E)-2-Pyridin-3-yl-ethenesulfonic acid 4-chloro-2-methoxy-benzoylamide; sodium salt]
12 | 0.5 to 15 | O=C(NS(=O)(=O)/C=C/c1ccccn1)c1ccc(F)cc1Cl [Example 2-6, (E)-2-Pyridin-2-yl-ethenesulfonic acid 2-chloro-4-fluoro-benzoylamide; sodium salt]
13 | 0.5 to 15 | Cc1cc(Br)ccc1C(=O)NS(=O)(=O)/C=C/c1ccsc1 [Example 3-5, (E)-2-Thiophen-3-yl-ethenesulfonic acid 4-bromo-2-methyl-benzoylamide; sodium salt]
14 | 0.5 to 15 | Cc1csc(/C=C/S(=O)(=O)NC(=O)c2ccc(Cl)cc2Cl)c1 [Example 1-10, (E)-2-(4-Methyl-thiophen-2-yl)-ethenesulfonic acid 2,4-dichloro-benzoylamide]
15 | 0.5 to 15 | Cc1ccc(C(=O)NS(=O)(=O)/C=C/c2ccncc2)c(C)c1 [Example 4-17, (E)-2-Pyridin-4-yl-ethenesulfonic acid 2,4-dimethyl-benzoylamide; sodium salt]
16 | 0.5 to 15 | Cc1ccc(C(=O)NS(=O)(=O)/C=C/c2cccs2)c(C)c1 [Example 3-13, (E)-2-Thiophen-2-yl-ethenesulfonic acid 2,4-dimethyl-benzoylamide; sodium salt]
